Test results as given in US9260759B2, “Pyrazoloanthrone and derivatives thereof for the treatment of cancers expressing MISRII” (The General Hospital Corporation, priority 2007, dated 2016).
Residue numbers refer to the chain shown, from its start. Like-named read-outs stand apart in the source and are kept apart here.

Columns and labels:
MOVCAR7 cells = assay: MTT proliferation assay, MOVCAR7 cells; type: cell-based; conditions: Mus musculus, 168 h
Method: Cells were plated in 96-well plates and treated the day after. Seven days after plating the cell survival was measured using 3-(4,5-dimethylthiazol-2-yl)-2,5-diphenyltetrazolium bromide substrate and measuring the absorbance at 550 nm.
(Connolly, 2003). The 4306 cells were provided by Dr. Daniela Dinulescu, Brigham and Women's (Boston) (30). Cells were plated at a density of 1000 cells/well in 96-well plates and treated 24 h later. The cell proliferation was measured after 7 days by registering the absorbance at 550 nm. Paclitaxel was manufactured by Ivax Pharmaceuticals and obtained from the MGH pharmacy.
The cells were treated for 7 days and the proliferation was measured by spectrophotometry. To exclude cytotoxic effects on the cells unrelated to MIS signal transduction, we used untransfected COS7 cells as a negative control. […] Paclitaxel is used in treatment of a wide range of tumors, but the side effects can be debilitating (Pieretti-Vanmarcke, 2006a, Pieretti-Vanmarcke, 2006b).

JNK = assay: Immunoblot of JNK phosphorylation in MOVCAR7 cells; type: cell-based, mouse
Method: (§1) The results are representative of several experiments.
(§2) Cells were washed in PBS and lysates were prepared in 1× Passive lysis buffer (PLB) provided with the Dual luciferase reporter assay kit (Promega). The lysates were cleared by centrifugation and the protein concentration was determined by Bradford assay (Bio-Rad, Hercules Calif.). […] of protein were loaded onto a NuPAGE 4-12% Bis-Tris gradient gel with MOPS-buffer (Invitrogen, Carlsbad Calif.) for polyacrylamide gel electrophoresis. Following transfer to a nitrocellulose by electroblotting, the membrane was blocked in 5% milk Tris-buffered saline/Tween20 (TBS-T) for 1 h at room temperature and incubated with primary antibody (pJNK, c-jun and phosph c-jun antibodies were purchased from Cell Signalling, Danvers, Mass.; amd JNK antibody was published from Santa Cruz Biotechnology, Calif.) overnight at 4° C. in 5% BSA followed by incubation with secondary horseradish peroxidase conjugated anti-rabbit antibody (Jackson ImmunoResearch, Westgrove Pa.) for 1 h. Immunoreactive proteins were detected by enhanced chemiluminescence (Pierce, Rockford Ill.). Anisomycin was purchased from Calbiochem.
(§3) The known Jun kinase activator anisomycin was used as a positive control (Hazzalin, 1998). […] Further, MIS had no effect on phosphorylation of JNK by anisomycin.

c-jun = assay: Western blot of anisomycin-induced c-jun phosphorylation in MOVCAR cells; type: cell-based, mouse
Method: as §1, §2, §3

rat MISRII = target: T1, rat MISRII (Rattus norvegicus, UniProt Q62893); assay: BRE-luciferase reporter assay in COS7 cells transfected with MISRII; type: cell-based
T1 construct: expressed in transfected cells; host or cells: COS7
T1 sequence (Q62893 18-557): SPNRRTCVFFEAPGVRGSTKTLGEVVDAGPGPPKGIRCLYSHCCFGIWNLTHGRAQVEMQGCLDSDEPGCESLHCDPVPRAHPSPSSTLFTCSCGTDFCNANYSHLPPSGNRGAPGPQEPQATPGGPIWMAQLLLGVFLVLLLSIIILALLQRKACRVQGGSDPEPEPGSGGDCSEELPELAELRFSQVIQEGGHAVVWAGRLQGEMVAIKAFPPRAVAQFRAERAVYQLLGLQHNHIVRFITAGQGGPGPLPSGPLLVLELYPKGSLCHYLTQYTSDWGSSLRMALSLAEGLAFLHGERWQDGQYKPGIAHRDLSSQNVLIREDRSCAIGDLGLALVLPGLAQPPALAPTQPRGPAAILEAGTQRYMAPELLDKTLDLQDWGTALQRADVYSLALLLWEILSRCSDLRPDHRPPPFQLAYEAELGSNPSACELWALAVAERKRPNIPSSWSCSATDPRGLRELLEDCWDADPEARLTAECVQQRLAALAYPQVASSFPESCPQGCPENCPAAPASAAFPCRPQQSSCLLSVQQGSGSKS
Excerpt: COS7 cells were transiently transfected with MISRH, BRE-Luciferase and phRL-CMV. […] Control cells were transfected with a control plasmid (EGFP-N1 plasmid) instead of the receptor plasmid to keep the total DNA transfected constant. The results shown are the fold-induction over vehicle treated cells and normalized to phRL-CMV expression to correct for variations in cell number and transfection efficiency. […] The results represent the mean values from three independent experiments performed in triplicates (Error bars represent SEM, *p<0.05, **p<0.001).
To identify molecules that interact with the MISRII, we developed a reporter assay where binding to MISRII activates a firefly luciferase reporter driven by the BMP-responsive element (BRE) promoter kindly provided by Dr. Peter ten Dijke (The Netherlands Cancer Institute, The Netherlands) The BMP promoter region on mouse M. mus is located on chromosome 2 (Chr2) and corresponds to RefSeq No: NT—039207.6 93504644-93506272 (SEQ ID NO:1). The BRE-luciferase reporter (Korchynskyi and ten Dijke, 2002, Logeart-Avramoglou, 2006) has multiple optimized BMP response elements (3 SBE, 7 GC, and 4 CAGC) driving the expression of the firefly luciferase. This reporter construct together with a control Renilla luciferase reporter phRL-CMV (Promega, Madison Wis.) and a rat MISRII cDNA expression construct (Teixeira, 1996) were transiently transfected into COST cells and plated in 384 well plates. Primary screens were performed at the Harvard Institute of Chemistry and Cell Biology screening facility. Compounds from chosen libraries were added at a volume of 100 nl at 5 mg/ml concentration in DMSO into 30 μl cell media and cultured for 24 h at 37° C., after which the luciferase activity was measured with reagents from Promega according to the manufacturer's instructions. A hit was identified as causing a fold induction over the plate median and each compound was tested in duplicate in separate plates. MIS was used to control for intra- and inter-assay variability.
COS7 cells were plated at a density of 5000 cells/well in 96-well plates for secondary screens. The day after plating cells were transfected with rat MISRII receptor or EGFP-N1 (Clontech, Mountain View Calif.) together with BRE firefly luciferase reporter construct and phRL-CMV using TransIT-LT1 transfection reagent (Mirus Bio Corporation, Madison Wis.). […] Results were obtained using the Dual Luciferase reporter assay according to the manufacturer's instructions (Promega). Plates were read in a Wallac Victor2 luminometer (PerkinElmer, Wellesley Mass.).

endogenous MISRII = target: T2, endogenous MISRII (Mus musculus, UniProt Q8K592); assay: BRE-luciferase reporter assay in MOVCAR7 cells expressing endogenous MISRII; type: cell-based; conditions: 5 μg/ml MIS, MOVCAR7, 24 h
T2 construct: a mouse ovarian cancer cell line, MOVCAR7, that expresses endogenous MISRII; endogenous in cells; host or cells: MOVCAR7 (mouse ovarian cancer cell line)
T2 sequence (Q8K592 16-568): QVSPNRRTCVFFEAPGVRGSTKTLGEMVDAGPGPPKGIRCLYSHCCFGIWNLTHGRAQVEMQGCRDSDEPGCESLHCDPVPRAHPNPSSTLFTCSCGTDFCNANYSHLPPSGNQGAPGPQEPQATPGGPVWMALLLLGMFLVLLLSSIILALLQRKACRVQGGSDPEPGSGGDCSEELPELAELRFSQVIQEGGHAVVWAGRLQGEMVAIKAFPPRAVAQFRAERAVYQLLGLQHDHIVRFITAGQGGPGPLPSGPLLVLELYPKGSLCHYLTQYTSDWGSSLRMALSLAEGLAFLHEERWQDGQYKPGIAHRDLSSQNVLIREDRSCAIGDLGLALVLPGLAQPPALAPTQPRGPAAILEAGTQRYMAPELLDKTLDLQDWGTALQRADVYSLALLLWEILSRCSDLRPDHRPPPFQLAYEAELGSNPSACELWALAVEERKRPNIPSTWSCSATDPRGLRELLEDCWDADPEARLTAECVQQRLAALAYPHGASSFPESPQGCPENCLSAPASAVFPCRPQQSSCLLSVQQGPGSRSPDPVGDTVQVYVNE

MISRIIK228R = target: T3, MISRIIK228R (Rattus norvegicus, UniProt Q62893, K228R); assay: BRE-luciferase reporter assay in COS7 cells with kinase-deficient receptor MISRIIK228R; type: cell-based; conditions: K228R receptor overexpressed, COS7, 24 hrs, agent alone
T3 construct: expressed in transfected cells; host or cells: COS7
T3 sequence (Q62893 18-557 K228R): T1 sequence (Q62893 18-557) with K211R
Excerpt: Results shown represent the mean values from four independent experiments performed in triplicates (Error bars represent standard error of the mean, *, P<0.05).

## CC(=O)O[C@H]1C(=O)[C@@]2(C)[C@H]([C@H](OC(=O)c3ccccc3)[C@]3(O)C[C@H](OC(=O)[C@H](O)[C@@H](NC(=O)c4ccccc4)c4ccccc4)C(C)=C1C3(C)C)[C@]1(OC(C)=O)CO[C@@H]1C[C@@H]2O [paclitaxel]
MOVCAR7 cells; read-out: IC50 of paclitaxel combined with SP600125
  IC50: 0.21 nM
MOVCAR7 cells; MOVCAR7, 7 days, MTT, read-out: IC50 of paclitaxel alone
  IC50: 0.81 nM

## COc1ccc(C[C@H]2NC[C@H](O)[C@H]2OC(C)=O)cc1 [anisomycin, reference compound]
JNK; 500 nM anisomycin, 30 min
  phosphorylation of JNK (positive control): strong activation

## CCOc1nc(NC(=O)Cc2cc(OC)ccc2OC)cc(N)c1C#N [JNK inhibitor VIII, reference compound]
c-jun
  inhibiting phosphorylation of c-jun, compared with SP600125: much more effective
c-jun; pre-treatment 25 uM
  c-jun phosphorylation induced by 500 nM anisomycin: inhibited
Rat MISRII; JNK inhibitor VIII 5, 25 or 50 μM with MIS
  effect on BRE-luciferase when combined with MIS: no further effect
Rat MISRII; JNK inhibitor VIII at 5, 25 or 50 μM alone, COS7
  activation of BRE-luciferase: did not result in any activation

B1: MIS: Recombinant human MIS prepared from Chinese hamster ovary cells stably transfected with the human MIS gene (protein)
chain: LRAEEPAVGTSGLIFREDLDWPPGSPQEPLCLVALGGDSNGSSSPLRVVGALSAYEQAFLGAVQRARWGPRDLATFGVCNTGDRQAALPSLRRLGAWLRDPGGQRLVVLHLEEVTWEPTPSLRFQEPPPGGAGPPELALLVLYPGPGPEVTVTRAGLPGAQSLCPSRDTRYLVLAVDRPAGAWRGSGLALTLQPRGEDSRLSTARLQALLFGDDHRCFTRMTPALLLLPRSEPAPLPAHGQLDTVPFPPPRPSAELEESPPSADPFLETLTRLVRALRVPPARASAPRLALDPDALAGFPQGLVNLSDPAALERLLDGEEPLLLLLRPTAATTGDPAPLHDPTSAPWATALARRVAAELQAAAAELRSLPGLPPATAPLLARLLALCPGGPGGLGDPLRALLLLKALQGLRVEWRGRDPRGPGRAQRSAGATAADGPCALRELSVDLRAERSVLIPETYQANNCQGVCGWPQSDRNPRYGNHVVLLLKMQVRGAALARPPCCVPTAYAGKLLISLSEERISAHHVPNMVATECGCR
Endogenous MISRII
  increase of BRE activity compared to untreated cells: 2 fold
Rat MISRII; MIS 0.5 ug/ml alone, MISRII-transfected COS7, 24 h
  BRE-luciferase expression, fold induction: greater than ten-fold
MISRIIK228R
  activation of BRE-luciferase with kinase-deficient receptor: neither MIS nor SP600125 activates BRE-luciferase
JNK; 5 μg/ml MIS, 30 min
  phosphorylation of JNK: no phosphorylation beyond background
JNK; MIS with anisomycin
  effect of MIS on phosphorylation of JNK by anisomycin: no effect
